Measurements as given in paper PMC9183037 (Polymers, 2022).

Columns and labels:
type 2 diabetic rats = test: In vivo pharmacodynamics study: blood glucose in type 2 diabetic rats; set-up: species or system Sprague-Dawley (SD) rats; settings: T2DM rats, subcutaneous 65 μg/kg
Method: SD rats were fed high-fat diets containing 45% fat to induce insulin resistance. After one-month diets, a standard 16 h fast in SD rats was conducted, and a 30 mg/mL STZ solution prepared with 0.1 mol/L citrate-sodium citrate buffer (pH 4.5) was injected intraperitoneally at a dose of 30 mg/kg (avoid light, the injection was completed within 30 min). Then the rats were given sufficient water and fasted. Restored the diet after 2 h. If the fasting blood glucose was higher than 16.67 mmol/L for two consecutive times, and the rats were accompanied by significant polydipsia, polyphagia, polyuria, and weight loss, it is considered to be successfully modeled and subsequent experiments could be carried out. To evaluate therapeutic effects, thirty T2DM rats were randomly divided into five groups, fasted overnight, and labeled respectively. […] Blood samples were collected from the tail tip at 0, 0.5, 1, 2, 3, 4, 6, and 10 h after administration to observe the changes in blood glucose levels, and the blood glucose-time curve was plotted.

Raji-B cells = test: Cytotoxicity by MTT assay, 4 h incubation; assay type: cell-based, Human; settings: 0.03-1 μM
Method: (§1) The cytotoxicity of chitosan-based nanoparticles was measured by MTT assay. Caco-2, HT-29, and Raji-B cells at the logarithmic growth stage were inoculated on 96-well plates at 5 × 10^3 cells per well, respectively. The cells were cultured at 37 °C, 5% CO2 for 48 h, then the culture medium was removed and 150 μL of drug-containing culture medium was added to the final concentrations of 1, 0.5, 0.25, 0.125, 0.06, and 0.03 μM. After incubation for 4 h, 20 μL of MTT solution (5 mg/mL) was added to each well, which was incubated for an additional 4 h. Then, the culture medium was discarded and replaced with 150 μL dimethyl sulfoxide. The plates were placed on the shaker and oscillated for 10 min.
(§2) The absorbance was measured at 570 nm using an enzyme marker (ST360, KHB, Shanghai, China). Cell viability was calculated as a percentage of the absorbance relative to that of the control.

HT-29 cells = test: Cytotoxicity by MTT assay, 4 h incubation; assay type: cell-based, Human; settings: 0.03-1 μM
Method: as §1, §2

Caco-2 cells = test: Cytotoxicity by MTT assay, 4 h incubation; assay type: cell-based, Human; settings: 0.03-1 μM
Method: as §1, §2

Insulin
time of minimum blood glucose concentration (type 2 diabetic rats): 3 h
change of blood glucose concentration (type 2 diabetic rats; 0-10 h): decreased significantly within 3 h

CCN(CC)c1ccc2c(-c3ccccc3C(=O)O)c3ccc(=[N+](CC)CC)cc-3oc2c1 [Rhodamine B]
cytotoxicity to Raji B cells (Raji-B cells): no cytotoxicity
cytotoxicity to HT-29 cells (HT-29 cells): no cytotoxicity
cytotoxicity to Caco-2 cells (Caco-2 cells): no cytotoxicity
